We go through 7 molecules from patent US6458758B1, “Compositions and methods utilizing nitroxides in combination with biocompatible macromolecules” (Synzyme Technologies, Inc., priority 1993, dated 2002).

Series [1] is described as follows: Superoxide oxidase / dismutase activity of nitroxide-labelled hemoglobin on storage (ESR). In kind it is biochemical. The text has this:
For example, an o-raffinose polymerized hemoglobin solution that has been labelled with 4-amino-TEMPO is stored in its oxygenated state in a sealed glass container (FIG. 1A). In such a state, the rate of superoxide anion and met-hemoglobin formation in solution is sufficiently rapid that the conversion of the nitroxide to its hydroxylamine derivatives may be conveniently monitored (See Equation [4] and compare FIGS. 1A and 1B). Equation 4 represents that the conversion of nitroxide to its diamagnetic hydroxyl derivative is coupled to the conversion of the superoxide anion back to molecular oxygen. […] (FIG. 1B). The nitroxide is considered to have performed a “superoxide oxidase”-like activity when it is converted to its hydroxylamine derivative in the presence of hemoglobin.
Knowing that under the experimental conditions described in FIGS. 1A and 1B the nitroxide is fully converted to hydroxylamine (See Equation [4]), the nitroxide may be regenerated by simply providing more superoxide anion as shown in Equation 5. […] This observation is consistent with the reconversion of the hydroxylamine derivative to nitroxide coupled with the formation of hydrogen peroxide from superoxide anion.

Series [2] concerns mice. The note with it: cited from earlier work.
The subject of series [3] is Chinese Hamster V79 cells. Description: Radioprotection of Chinese Hamster V79 cells at 12 Gray. In kind it is cell-based. The note with it: 12 Gray x-ray; cells pretreated 10 minutes prior to irradiation.
Series [4] deals with C57 mice. Description: 30-day survival of C57 mice after 10 Gray irradiation. In kind it is in vivo. As to conditions: TPL 200 mg/kg ip, PNA 0.5 ml/mouse iv where given, 10 mice per group.
A short description of series [5]: Rat plasma TPL after intravenous injection (EPR spin density). In kind it is in vivo. As to conditions: 100 mM solution, 10% v/v top load. The procedure: FIG. 14 is a plot showing time dependence of rat plasma concentrations of TPL after intravenous injections. Plasma samples were obtained from rats described in FIG. 13. TPL concentrations were determined from EPR spin density measurements.

Series [6] is described as follows: Plasma levels of TPL with or without PNA in C57 mice (EPR). The note with it: TPL 275 mg/kg ip alone.
The nature of series [7]: in vivo. As to conditions: iv.
Series [8] concerns C3H mice. As to conditions: cited from earlier work.
Series [9] in a line: EPR signal of ^15N-TEMPOL in isolated ischemic rat heart. The note with it: 2 mM TPL. The procedure: The solid lines are double-exponential fittings to the observed intensity data. The half-lives are 0.4 minutes, 2.9 minutes (▪), and 3.3 minutes, 30.1 minutes (●) respectively.
Using methods essentially as described in Kuppusamy et al. Proc. Natl. Act. Sci., USA Vol. 91, pgs.
In an EPR imaging study, the rat heart was perfused with a solution containing nitroxide with or without polynitroxide albumin, followed by cessation of perfusate flow in order to create ischemia. […] It can be seen the signal intensity undergoes a biphasic decay and that the presence of polynitroxide albumin greatly slows the decay. By thus stabilizing the TEMPOL signal, polynitroxide albumin allows high-quality EPR images to be obtained over a prolonged period of time. Referring to FIGS. 22-23, a three-dimensional EPR image of the ischemic heart can still be obtained after 156 minutes of global ischemia. […] This illustrates that the presence of PNA allows much better imaging than is possible with TEMPOL alone, in terms both of resolution and signal persistence.
In FIG. 24, the intensity of the EPR signal is shown as a function of the duration of ischemia. In the lower curve, 2 mM of TEMPOL is infused into an ischemic heart. The upper curve traces the original intensity of 2 mM TEMPOL together with a polynitroxide albumin (4 g/dl of albumin at 42 moles of TEMPOL per mole of albumin). […]

In series [10] the test system is conscious rats. As to the kind of experiment: Mean arterial pressure response in conscious rats.
From the text: The rats were allowed to recover from surgery and anesthesia for approximately 7 days prior to study.
The rats were allowed to recover from surgery and anesthesia for approximately seven days prior to study.
Series [11] is described as follows: In vivo EPR of mouse skin: intradermal PNA and intravenous ^15N-TPL. On the procedure: Thirty minutes later the spectrum in (C) was recorded.
The intensity of the low field ^15N-TPL peak is plotted against time. […].
FIGS. 42A and 42B show the pharmacokinetics of intravenous ^15N-TPL (1% v/w) measured at a patch of skin on the abdomen of the mouse.
A custom-built bridged loop-gap surface resonator, absorption microwave bridge was used for in vivo EPR spectroscopy at 1.25 GHz (L-band) in the mouse. […] The anesthetized mouse was placed in a ‘sandwich’ of two templates which allowed it to be placed on the loop-gap surface resonator, absorption microwave bridge in either the supine position, for spectroscopy of the back of the head, or in the prone position for spectroscopy of the abdomen. A tail vein cannula was used for intravenous injection of ^15N-TEMPOL; this injection site was remote from the resonator.
The spectrum was made 1 minute after ^15N-TPL was injected via the tail vein. […] FIG. 40B was recorded at approximately ⅕ of the instrument gain used in FIG. 40A in order to accommodate the ^15N-TPL signal.

Series [12] in a line: In vivo ESR of mouse tail after iv nitroxide-labelled HBOC plus ^15ND17-TEMPOL. As to conditions: 0.5 ml iv via cannula. The procedure:
FIG. 7A is the ESR spectrum of the nitroxide signal recorded from the mouse tail approximately 10 minutes after intravenous infusion of 0.5 ml of the sample shown in FIG. 6. FIG. 7B is the time dependent (scan time 30 minutes) decrease in the center peak (Mo) signal intensity of FIG. 7A recorded at 10 times of the instrument sensitivity. FIG. 7C is a continuation of FIG. 7B at the end of its scan.
FIG. 8A is a series of 5 ESR spectrum recorded at 0.5 minute intervals, the magnetic field strength was increased by 2 Gauss in between each scan to display the decrease in signal intensity as a function of time. […]
The separation of the resonance peaks permits the simultaneous monitoring of free radical or enzyme mimic activities involving the small molecular weight nitroxide (TEMPOL) and its macromolecular conjugate in both in vitro and in vivo (murine) reactions. […] First, the approximate plasma half-life of a small molecular weight nitroxide (^15ND17-TEMPOL see FIG. 4C) and a large molecular weight 4-(2-bromoacetamido)-TEMPOL-labelled HBOC (see FIG. 4B) are determined by preparing a mixture of the two and adjusting the ESR signal intensity to be approximately the same (see FIG. 6). […] The mouse tail was inserted into an ESR cavity and the spectrum was recorded within 10 minutes after injection (see FIG. 7A). […]

Series [13] has as its system leukocyte rolling and adhesion to endothelial cells. As to the kind of experiment: Cigarette smoke induced leukocyte rolling, adhesion and aggregate formation, dorsal skinfold chamber. In kind it is in vivo, Syrian Golden hamsters. The text has this:
The interactions of leukocytes with endothelial cells and platelets are an indicator of the microcirculatory response to several adverse physiological conditions, ranging from localized and systemic ischemia/reperfusion injury, rejection of organ grafts, and the response to the organism to various oxidizing novae. See also Lehr et al., PNAS, […]. The mediator role of reactive oxygen species has been documented in many in vitro and in vivo models and, as a consequence, antioxidants and radical scavengers have been applied to counteract leukocyte activation, aggregation, and adhesion to endothelium and the subsequent microcirculatory dysfunction.

Where two headings read alike, the source gives them in different places.

Regarding “4-amino-TEMPO labelled o-raffinose polymerized hemoglobin: o-raffinose polymerized hemoglobin labelled with 4-amino-TEMPO”, the “nitroxide signal after storage of sample diluted with equal volume of unlabelled hemoglobin” value in series [1] (30 days of cold storage at 4° C.) is recorded as “partially regenerated”. Further, in series [1] (oxygenated, sealed glass container, 30 days at 4° C.), the “ESR resonance peaks after storage (conversion of nitroxide to hydroxylamine)” value is reported as “complete disappearance of the resonance peaks”.
Turning to `CC1(C)CCCC(C)(C)N1[O]` [TEMPO, 2,2,6,6 tetramethylpiperidine-1-oxyl], the 50% lethal dose (LD50) – broadly, the dose at which mortality reaches 50% – in series [2] (mice, intraperitoneal) is recorded as 341 mg/kg. Besides, the “maximum tolerated intraperitoneal dose” value in series [2] (mice) is reported as 275 mg/kg.
As for `CC1(C)CC(O)CC(C)(C)N1O` [TPH], the “surviving fraction of V79 cells” value in [3] is on record as 2%.
In series [4], `CC1(C)CC(O)CC(C)(C)N1[O]` [TPL, 4-hydroxy-2,2,6,6-tetramethylpiperidine-1-oxyl] returned a 30-day survival of 10%. In addition, the half-life (commonly how long it takes for the measured level to halve) in series [5] was less than 1 min; in [7] (C57, mouse) it was approximately 0.833 min; in [7] (mouse), approximately 2 min. For the same molecule, the “maximum plasma level of TPL relative to ~100 mg/kg ip in the presence of PNA” value in [6] is “approximately one-fifth”. Moreover, the “time to maximum peak intensity in mouse tail” value (repeat iv injection of TEMPOL) is given as “approximately 10 seconds”. In [2] (C3H mice), the “maximal tolerated dose administered intraperitoneally” value was 275 mg/kg. The “maximal TPL levels in whole blood” value in [8] (275 mg/kg ip, 5-10 minutes after injection) is approximately 150 µg/mL. In addition, the “dose of radiation at which 50% of treated mice die within 30 days” value in series [8] (TPL 275 mg/kg ip 5-10 minutes before whole body radiation) was 9.97 Gray. Also, the half-life at 2 mM in series [9] (read-out: half-life of EPR signal, first phase of double-exponential fit) came out at 0.4 min; in [9] (read-out: half-life of EPR signal, second phase of double-exponential fit), 2.9 min. For the same molecule, the vasodilatory effect entry in series [10] (10% v/v top load, PNA 5 g/dl, TPL 100 mM) was “no significant vasodilatory effect”. Besides, in [10] (conscious rats), the “antihypertensive effect when injected alone with HBOC” value is “no antihypertensive effect”.
Regarding `CC1(C)CC(O)CC(C)(C)[15N]1[O]` [^15N-TPL], the “plasma half-life (reduction to TPH)” value (mouse, 0.5 ml of 40 mM iv, no PNA) was determined as 2 min. Moreover, in series [11] (abdomen skin, absence of intradermal PNA), the “local half-life in skin” value came to 0.5 min. In addition, in series [11] (abdomen skin, after intradermal injection of 100 μl PNA), the “time the increased ^15N-TPL signal was maintained” value is recorded as “at least 30 minutes”. Moreover, the “decay of ^15N-TPL to ^15N-TPH” value in series [11] (absence of intradermal PNA) is “complete”. Moreover, the “time to maximum ^15N-TPL signal after tail vein injection” value in series [11] (measured at site of intradermal PNA injection on the back) is “less than 2 minutes”. Further, the “residual steady-state level as share of the initial ^15N-TPL concentration” value in [11] (site of intradermal PNA injection, assuming complete distribution in total body water) is 17%. Moreover, the “time the ^15N-TPL signal remained stable” value in series [11] (skin on the back, in the presence of intradermal PNA) is on record as “at least 30 minutes”.
With `[2H]C([2H])([2H])C1(C([2H])([2H])[2H])[15N]([O])C(C([2H])([2H])[2H])(C([2H])([2H])[2H])C([2H])([2H])C([2H])(O)C1([2H])[2H]` [^15ND17-TEMPOL], the “time to disappearance of ESR signal after injection” value in [12] was not above 2.5 min.
As for “Hemoglobin-based oxygen carrier (HBOC), DBBF-Hb: purified hemoglobin cross-linked with bis(3,5 dibromosalicyl)fumarate”, in [13] (15 MINUTES), the aggregate formation is given as 3.0 ± 1.7 /30 sec, the arteriolar sticking is recorded as 31.9 ± 26.4 /mm^2, the venular rolling amounted to 7.9 ± 2.8% and the venular sticking was 66.0 ± 43.2 /mm^2. In series [13] (60 MINUTES), the aggregate formation is given as 4.5 ± 2.6 /30 sec, the arteriolar rolling is on record as 3.8 ± 2.9 /mm, the arteriolar sticking was 42.0 ± 32.1 /mm^2 and the venular rolling is given as 9.2 ± 3.8%. Also, in series [13] (60 MINUTES), the venular sticking was 101.5 ± 76.9 /mm^2. In [13] (BASELINE), the aggregate formation was 0.3 ± 0.5 /30 sec, the arteriolar rolling was 0.3 /mm, the arteriolar sticking is given as 0.0 /mm^2 and the venular rolling amounted to 5.8 ± 1.2%. Moreover, in series [13] (BASELINE), the venular sticking was 0.0 ± 0.0 /mm^2. The leukocyte activation entry in [13] (cigarette smoke, compared with saline-treated controls) is “no effect”.
